Assay results as given in the supplement of paper PMC10331698.
± gives the standard deviation of the averaged measurements.

Assays:
Test in all cases: level (log10 ratio to DMSO vehicle control); higher = higher biomarker level / cell amount than vehicle control
[1] = compound: O=C(O)C(F)(F)OC(F)(F)C(F)(F)OC(F)(F)C(F)(F)OC(F)(F)C(F)(F)C(F)(F)C(F)(F)F [Perfluoro-3,6,9-trioxatridecanoic acid] (in DMSO); settings: 6700 nM
Experimental: (§1)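 BioMAP Diversity Plus panel of 12 human primary cell co-culture systems (3C, 4H, LPS, SAg, BT, BF4T, BE3C, CASM3C, HDF3CGF, KF3CT, MyoF, Mphg). Compounds were added 1 h before stimulation and left for 24 h (MyoF 48 h; BT 72 h for soluble read-outs or 6 d for IgG). Biomarkers were read by ELISA, cytotoxicity by SRB, PBMC viability and proliferation by Alamar Blue. Each well value was divided by the mean of 8 DMSO control wells on the same plate and log10 transformed; duplicate blinded samples were tested at 4 concentrations.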

[2] = compound: OCCC(F)(F)C(F)(F)C(F)(F)C(F)(F)F [4:2 Fluorotelomer alcohol] (in DMSO)
Experimental: as §1

[3] = compound: O=C(O)C(F)(OC(F)(F)C(F)(OC(F)(F)C(F)(OC(F)(F)C(F)(F)C(F)(F)F)C(F)(F)F)C(F)(F)F)C(F)(F)F [Perfluoro-(2,5,8-trimethyl-3,6,9-trioxadodecanoic)acid] (in DMSO)
Experimental: as §1

[4] = compound: CN(C(=O)C(F)(F)C(F)(F)C(F)(F)F)[Si](C)(C)C [N-Methyl-N-trimethylsilylheptafluorobutyramide] (in DMSO)
Experimental: as §1

[5] = compound: O=C(O)C(F)(F)C(F)(F)C(F)(F)OC(F)(F)F [Perfluoro(4-methoxybutanoic) acid] (in DMSO)
Experimental: as §1

[6] = compound: O=S(=O)(O)C(F)(F)C(F)(F)OC(F)(F)C(F)(F)F [Perfluoro(2-ethoxyethane)sulfonic acid] (in DMSO)
Experimental: as §1

Perfluorononanoic acid = compound: O=C(O)C(F)(F)C(F)(F)C(F)(F)C(F)(F)C(F)(F)C(F)(F)C(F)(F)C(F)(F)F [Perfluorononanoic acid] (in DMSO)
Experimental: as §1

[7] = compound: C=C(C)C(=O)OCCC(F)(F)C(F)(F)C(F)(F)C(F)(F)C(F)(F)C(F)(F)C(F)(F)C(F)(F)F [8:2 Fluorotelomer methacrylate] (in DMSO)
Experimental: as §1

Test System | level (log10) [1] | level (log10) ([2]; 6700 nM) | level (log10) ([2]; 20000 nM) | level (log10) ([2]; 60000 nM) | level (log10) ([3]; 1100 nM) | level (log10) ([3]; 3300 nM) | level (log10) ([3]; 10000 nM) | level (log10) ([4]; 6700 nM) | level (log10) ([4]; 20000 nM) | level (log10) ([4]; 60000 nM) | level (log10) ([5]; 6700 nM) | level (log10) ([5]; 20000 nM) | level (log10) ([5]; 60000 nM) | level (log10) ([6]; 6700 nM) | level (log10) ([6]; 20000 nM) | level (log10) ([6]; 60000 nM) | level (log10) (Perfluorononanoic acid; 6700 nM) | level (log10) (Perfluorononanoic acid; 20000 nM) | level (log10) ([7]; 6700 nM) | level (log10) ([7]; 20000 nM)
HDF3CGF:Collagen III | -0.236 ± 0.028 | -0.055 ± 0.068 | -0.0105 ± 0.0092 | 0.0335 ± 0.03 | -0.064 ± 0.072 | 0.014 ± 0.048 | 0.0695 ± 0.023 | 0.0005 ± 0.00071 | -0.0175 ± 0.005 | -0.0675 ± 0.037 | 0.0075 ± 0.033 | 0 ± 0.0099 | -0.007 ± 0.021 | -0.062 ± 0.12 | -0.08 ± 0.085 | -0.025 ± 0.16 | -0.0705 ± 0.043 | -0.168 ± 0.02 | -0.032 ± 0.042 | -0.0325 ± 0.067
HDF3CGF:CXCL9/MIG | -0.196 ± 0.0035 | -0.0335 ± 0.037 | -0.0065 ± 0.0064 | 0.01 ± 0.04 | -0.0165 ± 0.005 | 0.005 ± 0.0057 | -0.023 ± 0.02 | -0.0105 ± 0.0035 | -0.004 ± 0.0057 | -0.009 ± 0.018 | -0.0085 ± 0.0035 | 0.0025 ± 0.0064 | -0.005 ± 0.037 | 0.004 ± 0.0057 | 0.002 ± 0.0042 | -0.0055 ± 0.005 | -0.04 ± 0.016 | -0.074 ± 0.02 | -0.024 ± 0.0042 | -0.0275 ± 0.016
CASM3C:CXCL8/IL-8 | 0.002 ± 0.0085 | -0.002 ± 0.0028 | 0.0035 ± 0.026 | 0.019 ± 0.031 | -0.0025 ± 0.021 | -0.015 ± 0.025 | 0.0105 ± 0.0035 | -0.006 | -0.006 ± 0.0028 | 0.008 ± 0.0042 | 0.002 ± 0.0099 | -0.0065 ± 0.013 | 0.0165 ± 0.011 | -0.0095 ± 0.00071 | -0.0055 ± 0.0078 | 0.0265 ± 0.005 | 0.0075 ± 0.013 | 0.031 ± 0.033 | -0.011 ± 0.0057 | -0.0055 ± 0.028
KF3CT:CXCL9/MIG | -0.0395 ± 0.042 | -0.0055 ± 0.029 | -0.0115 ± 0.021 | -0.0115 ± 0.0035 | 0.0045 ± 0.012 | -0.002 ± 0.0085 | 0.0045 ± 0.0021 | -0.0035 ± 0.0092 | -0.0125 ± 0.0092 | 0.003 ± 0.0071 | 0.0195 ± 0.0021 | 0.0075 ± 0.0092 | 0.016 ± 0.018 | 0.0105 ± 0.0064 | -0.0015 ± 0.012 | 0.0155 ± 0.0021 | -0.006 ± 0.027 | -0.007 ± 0.0042 | -0.0035 ± 0.0092 | 0.004 ± 0.0014
lMphg:CD106/VCAM-1 | -0.017 ± 0.011 | -0.0025 ± 0.016 | 0.0005 ± 0.011 | 0.0005 ± 0.025 | 0.001 ± 0.0014 | 0.003 ± 0.021 | 0.0015 ± 0.044 | -0.025 ± 0.0028 | -0.0055 ± 0.025 | -0.028 ± 0.042 | 0.0015 ± 0.0035 | -0.0015 ± 0.022 | -0.0085 ± 0.021 | -0.0225 ± 0.0064 | -0.016 ± 0.017 | -0.023 ± 0.0014 | 0.001 ± 0.04 | -0.005 ± 0.02 | -0.0245 ± 0.0035 | -0.0315 ± 0.016
MyoF:Decorin | 0.033 ± 0.037 | -0.0155 ± 0.066 | 0.003 ± 0.028 | 0.0645 ± 0.026 | 0 ± 0.013 | -0.0065 ± 0.013 | 0.012 | 0.009 ± 0.011 | 0.0095 ± 0.018 | 0.03 ± 0.042 | -0.024 ± 0.041 | 0.0175 ± 0.079 | -0.0075 ± 0.063 | -0.0085 ± 0.0092 | 0.001 ± 0.013 | 0.0355 ± 0.005 | 0.0125 ± 0.028 | 0.0545 ± 0.0035 | -0.0145 ± 0.0021 | -0.004 ± 0.0057
BE3C:Keratin 8/18 | -0.293 ± 0.032 | -0.034 ± 0.057 | -0.02 ± 0.02 | 0.0085 ± 0.026 | -0.0165 ± 0.028 | -0.0085 ± 0.022 | -0.001 ± 0.038 | -0.013 ± 0.023 | 0.001 ± 0.013 | 0.019 ± 0.0085 | -0.013 ± 0.0057 | -0.002 ± 0.0071 | -0.004 ± 0.011 | -0.007 ± 0.013 | -0.0105 ± 0.013 | -0.01 ± 0.011 | -0.0335 ± 0.04 | -0.0365 ± 0.032 | -0.0195 ± 0.037 | -0.008 ± 0.071
CASM3C:Proliferation | -0.012 ± 0.016 | 0.0185 ± 0.03 | 0.0335 ± 0.044 | 0.0185 ± 0.028 | 0.011 ± 0.0014 | -0.008 ± 0.016 | -0.018 ± 0.023 | -0.017 ± 0.03 | -0.0095 ± 0.00071 | 0.039 ± 0.033 | 0.0025 ± 0.076 | -0.051 ± 0.047 | -0.0245 ± 0.069 | -0.0405 ± 0.052 | -0.0015 ± 0.018 | 0.048 ± 0.03 | 0.0505 ± 0.059 | 0.021 ± 0.052 | -0.01 ± 0.017 | -0.0245 ± 0.035
HDF3CGF:MMP-1 | -0.134 ± 0.054 | -0.025 ± 0.0057 | -0.0075 ± 0.011 | 0.0035 ± 0.0035 | 0.029 ± 0.018 | 0.023 ± 0.0028 | -0.0075 ± 0.0021 | -0.0195 ± 0.016 | -0.015 ± 0.014 | -0.008 ± 0.045 | -0.0015 ± 0.015 | -0.015 ± 0.0028 | -0.0235 ± 0.0021 | -0.004 ± 0.0071 | -0.0135 ± 0.029 | -0.0235 ± 0.053 | -0.008 ± 0.0099 | -0.012 ± 0.0042 | 0.013 ± 0.011 | 0.009 ± 0.018
lMphg:CD69 | -0.056 ± 0.083 | 0.0115 ± 0.07 | 0.007 ± 0.041 | 0.0155 ± 0.0035 | -0.02 ± 0.0099 | -0.017 ± 0.0042 | -0.008 ± 0.0014 | 0.0015 ± 0.005 | -0.0075 ± 0.035 | -0.039 ± 0.045 | -0.0165 ± 0.047 | -0.0145 ± 0.071 | 0.005 ± 0.099 | -0.043 ± 0.075 | 0.011 ± 0.0099 | -0.0415 ± 0.0078 | -0.0165 ± 0.069 | 0.0125 ± 0.032 | -0.041 ± 0.037 | -0.041
CASM3C:SRB | 0.0025 ± 0.00071 | 0.0045 ± 0.0035 | -0.008 | 0.0015 ± 0.0092 | 0.0035 ± 0.005 | -0.006 ± 0.0071 | 0.0005 ± 0.0035 | -0.001 ± 0.0042 | 0.0085 ± 0.012 | -0.002 ± 0.011 | -0.001 ± 0.0014 | -0.001 ± 0.0028 | -0.0045 ± 0.011 | -0.002 ± 0.0028 | -0.003 ± 0.0028 | 0.001 ± 0.0071 | -0.0005 ± 0.0064 | 0.002 | -0.006 ± 0.0028 | -0.0015 ± 0.005
HDF3CGF:CXCL11/I-TAC | -0.149 ± 0.013 | -0.039 ± 0.035 | 0.011 ± 0.0014 | -0.0275 ± 0.029 | -0.0015 ± 0.011 | 0.003 ± 0.014 | -0.0265 ± 0.033 | -0.0135 ± 0.0035 | -0.015 ± 0.0099 | -0.03 | -0.0035 ± 0.005 | 0.0045 ± 0.0078 | -0.0075 ± 0.0035 | 0.0165 ± 0.022 | 0.0055 ± 0.021 | -0.0365 ± 0.063 | 0.018 ± 0.013 | 0.0285 ± 0.018 | -0.0105 ± 0.025 | -0.0715 ± 0.013
MyoF:TIMP-1 | -0.112 ± 0.0085 | -0.001 ± 0.04 | 0.013 ± 0.075 | 0.009 ± 0.059 | 0.007 ± 0.0014 | 0.0155 ± 0.013 | 0.022 ± 0.024 | -0.0385 ± 0.019 | -0.027 ± 0.014 | -0.017 | -0.0155 ± 0.057 | -0.0185 ± 0.074 | -0.0135 ± 0.071 | 0.003 ± 0.0014 | 0.036 ± 0.028 | 0.0775 ± 0.025 | 0.0025 ± 0.03 | -0.034 ± 0.033 | 0.0115 ± 0.08 | 0.0185 ± 0.026
HDF3CGF:PAI-I | -0.212 ± 0.0099 | -0.057 ± 0.086 | 0.008 ± 0.072 | -0.0255 ± 0.076 | 0.049 ± 0.078 | 0.056 ± 0.076 | 0.062 ± 0.047 | -0.013 ± 0.0042 | 0.0015 ± 0.023 | 0.0385 ± 0.04 | -0.009 ± 0.0042 | -0.0135 ± 0.0078 | -0.001 ± 0.014 | 0.025 ± 0.0014 | -0.003 ± 0.0071 | -0.021 ± 0.013 | 0.037 ± 0.062 | 0.0765 ± 0.064 | -0.0305 ± 0.052 | -0.0635 ± 0.022
